Measured values as given in patent US8188121B2, “Substituted pyridines as antiparasitic AZA teraryl compounds” (The University of North Carolina at Chapel Hill, priority 2005, dated 2012).
Where a name gives a salt, the structure may show the parent alone. Read-outs that look alike come from different tables or passages of the source.

How the values were obtained:
[1] = tested on: Trypanosoma brucei rhodesiense (T. b. r.); assay: In vitro antiprotozoal activity against T. b. r.; assay type: cell-based
Procedure: (§1) In vitro antiprotozoal activities were measured following established protocols. See Ismail, M. A., et al., J. Med. Chem., 46, 4761-4769 (2003); Stephens, C. E., et al., Bioorg. Med. Chem. Lett., 13, 2065-2069 (2003) (in vitro assay against Leishmania donovani).
(§2) Testing methods are as described above in Example 17.

[2] = tested on: STIB 900 strain of Trypanosoma brucei rhodesiense; assay: T. b. r. STIB 900 mouse model; assay type: in vivo; conditions: for responders at 20 mg/kg: Trypanosoma brucei, 1440 h, mice surviving parasite free for 60 days, groups of four, read-out: Cures (converted)
Procedure: The activities of compounds 20, 18, 21, 48, 23c, 24c, 5, 4, and 10 against the STIB 900 strain of Trypanosoma brucei rhodesiense (T. b. r.) in a mouse model are shown in Table 3. […] Groups of four mice were infected intraperitoneally with 2×10^5 bloodstream forms of T. b. r. STIB 900 which originates from a patient in Tanzania. On days 3, 4, 5, and 6 post-infection the experimental groups were treated with the indicated compound, either by the intraperitoneal route, or for prodrugs, by the oral route. Usually the highest tolerated dose was used. The highest tolerated dose was determined in a pretoxicological experiment.
Parasitemia of the mice was checked daily up to day 14 post-infection and thereafter 2 times per week up to day 60. One group of mice was not treated and acted as control. Untreated control animals expire between day 7 and 8 post-infection. For relapsing mice, the day of death was recorded and the survival time determined. For the data shown in Table 3, cures reflect the number of mice that survive and are parasite free for 60 days. Survival reflects the average days of survival.
as §2

[3] = tested on: Plasmodium falciparum (P. f.); assay: In vitro antiprotozoal activity against P. f.; assay type: cell-based
Procedure: as §1, §2

[4] = tested on: L-6 rat mycoblast cells; assay: cells
Procedure: as §1, §2

[5] = tested on: DNA minor groove; assay: ΔTm of linear triaryl dications (DNA minor groove binding)
[6] = tested on: Leishmania donovani (L. d.); assay: In vitro antiprotozoal activity against L. d.; assay type: cell-based; conditions: read-out: L. d. IC50
Procedure: as §1, §2

[7] = Trypanosoma brucei, RHODESIENSE, Table 1, k/K = thousand, read-out: T. b. r. IC50
[8] = 20 mg/kg ip, days 3-6 post-infection, average days of survival
[9] = 20 mg/kg ip, days 3-6 post-infection
[10] = Plasmodium falciparum, Table 1, k/K = thousand
[11] = Rattus norvegicus, L6, read-out: CT IC50
[12] = Rattus norvegicus, L6, read-out: CT IC50, Table 4, L-6 cells
[13] = Table 2, K = thousand, read-out: T. b. r. IC50
[14] = Table 1, k/K = thousand, read-out: T. b. r. IC50

For N=C(N)Nc1ccc(-c2ccc(-c3ccc(NC(=N)N)cc3)cc2)cc1 [Compound 48, 4,4″-Bis-guanidino-[1,1′;4′,1″]terphenyl], the IC50 [1, 7] was 0.018 µM, the Survival [2, 8] was over 60 days and the responders at 20 mg/kg [2, 9] was 0%. It also gave an IC50 [3, 10] of 0.027 µM, an IC50 ([4]; Rattus norvegicus, L6, read-out: CT IC50, Table 1, L-6 cells) of 25.4 µM and a ΔTm ([5]; Table 1) of 12.2 °C. It also gave an IC50 ([6]; Leishmania donovani, Table 1) of 1.2 µM.
In the case of Cl.N=C(N)c1ccc(-c2ccc(-c3ccc(C(=N)N)cc3)c(C(F)(F)F)c2)cc1 [Compound 23b, 2′-Trifluoromethyl-[1,1′;4′,1″]terphenyl-4,4″-bis-amidine hydrochloride salt], the IC50 [1, 7] is reported as 0.048 µM, the IC50 [3, 10] is reported as 0.015 µM and the melting point is reported as over 300 °C. The IC50 [4, 11] was 9 µM, the ΔTm ([5]; Table 1) was 10.1 °C and the IC50 ([6]; Leishmania donovani, Table 1) was 3 µM.
Work on N=C(N)c1ncc(-c2ccc(-c3cnc(C(=N)N)nc3)cc2)cn1 [Compound 73, 1,4-Bis-(2′-amidinopyrimidin-5′yl)-phenylene hydrochloride salt] yielded an IC50 ([6]; Leishmania donovani, Table 4) of 1.72 µM.
Work on N=C(N)c1ccc(-c2ccc(-c3ccc(C(=N)N)nc3)cc2)cc1 [Compound 80, Phenyl[1,1′]phenyl[4′,5″]pyridinyl-4,2″-bis-amidine hydrochloride salt] yielded an IC50 [4, 12] of 2.8 µM and an IC50 ([6]; Leishmania donovani, Table 4) of 0.084 µM.
Compound N=C(NO)c1ccc(-c2ccc(-c3ccc(C(=N)NO)o3)cc2)o1 [Compound 13, N-Hydroxy-5-{4-[5-(N-hydroxyamidino)-furan-2-yl]-phenyl}-furan-2-carboxamidine] has a melting point of over 300 °C.
CC(=O)O.N=C(N)c1ccc(-c2ccc(-c3ccc(C(=N)N)cc3)cc2)cc1 [Compound 20, [1,1′;4′,1″]Terphenyl-4,4″-bis-carboxamidine acetate salt] showed an IC50 [1, 7] of 0.005 µM, a Survival [2, 8] of 52.5 days and a responders at 20 mg/kg [2, 9] of 0%. For the same compound, the IC50 [3, 10] was 0.001 µM, the IC50 [4, 11] was 22.1 µM and the ΔTm ([5]; Table 1) was 19.1 °C.
N=C(N)c1ccc(-c2ccc(-c3ccc(C(=N)N)cc3)c3ccccc23)cc1 [Compound 38a, Phenyl[1,1]napthyl[4′,1″]phenyl-4,4″-bis-amidine] gave an IC50 [1, 13] of 0.175 µM, an IC50 ([3]; Table 2, K = thousand) of 0.021 µM and an IC50 [4] of 7.3 µM. For the same compound, the IC50 ([6]; Table 2) was 12.9 µM.
With N=C(N)c1ccc(-c2ccc(-c3ccc(C(=N)N)nc3)cn2)cc1 [Compound 89, Phenyl[1,2′]pyridinyl[5′,5″]pyridinyl-4,2″-bis-amidine hydrochloride salt] the IC50 ([1]; Trypanosoma brucei, RHODESIENSE, Table 4, read-out: T. b. IC50) was 0.006 µM, the Cures ([2]; 5 mg/kg ip, Table 5) was 3/4 and the Survival ([2]; 5 mg/kg ip, Table 5) was over 60 days. It also gave an IC50 ([3]; Plasmodium falciparum, Table 4) of 0.001 µM, an IC50 [4, 12] of 19.9 µM and an IC50 ([6]; Leishmania donovani, Table 4) of 0.51 µM.
Compound N=C(N)c1ccc(-c2ccc(-c3cnc(C(=N)N)cn3)cn2)cc1 [Compound 97, Phenyl[1,2′]pyridinyl[5′,5″]pyrazinyl-4,2″-bis-amidine hydrochloride salt] has an IC50 [4, 12] of 93.4 µM and an IC50 ([6]; Leishmania donovani, Table 4) of 15.6 µM.
CONC(=N)c1ccc(-c2cnc(-c3ccc(C(=N)NOC)cc3)nc2)cc1 (as salt: hydrochloride) [Compound 29, 2,5-Bis-[4′-(N-methoxyamidino)phenyl]-pyrimidine] gave a melting point of 217 to 218 °C.
Work on N=C(N)c1cnc(-c2ccc(-c3cnc(C(=N)N)cn3)cc2)cn1 [Compound 71, 1,4-Bis-(2′-amidinopyrazin-5′-yl)-phenylene hydrochloride salt] yielded an IC50 ([3]; Plasmodium falciparum, Table 4) of 5.17 µM, an IC50 [4, 12] of 46.5 µM and an IC50 ([6]; Leishmania donovani, Table 4) of 10 µM.
For N=C(N)c1ccc(-c2ccc(-c3ccc(C(=N)N)nc3)cc2)cn1 [Compound 66, 1,4-Bis-(2′-amidinopyridin-5′-yl)-phenylene hydrochloride salt], the Cures ([2]; 5 mg/kg ip, Table 5) was 0/4, the Survival ([2]; 5 mg/kg ip, Table 5) was over 51.5 days and the IC50 [4, 11] was 31.3 µM. It also gave an IC50 [4, 12] of 1.2 µM, a ΔTm ([5]; Table 1) of 16.1 °C and an IC50 ([6]; Leishmania donovani, Table 1) of 0.72 µM. The IC50 ([6]; Leishmania donovani, Table 4) was 0.063 µM.
N=C(NO)c1ccc(-c2ccc(-c3ccc(C(=N)NO)o3)cn2)cc1 [Compound 9, N-Hydroxy-5-{6-[4-(N-hydroxyamidino)-phenyl]-pyridin-3-yl}-furan-2-carboxamidine] gave a melting point of 194 to 195 °C.
With N=C(N)c1ccc(-c2ccc3cc(-c4ccc(C(=N)N)cc4)ccc3c2)cc1 [Compound 38b, Phenyl[1,2′]naphthyl[6′,1″]phenyl-4,4″-bis-amidine] the IC50 [1, 13] was 0.053 µM, the IC50 ([3]; Table 2, K = thousand) was 0.019 µM and the IC50 [4] was 8 µM. For the same compound, the ΔTm ([5]; Table 2) was 18.2 °C and the IC50 ([6]; Table 2) was 0.28 µM.
Compound CC(=O)O.N=C(N)c1ccc(-c2ccc(-c3ccc(C(=N)N)o3)cn2)cc1 [Compound 10, 5-[6-(4-Amidinophenyl)-pyridin-3-yl]-furan-2-carboxamidine acetate salt] has an IC50 [1, 7] of 0.002 µM, a Survival [2, 8] of over 53.5 days and a responders at 20 mg/kg [2, 9] of 75%. It also gave an IC50 [3, 10] of 0.0052 µM, an IC50 [4, 11] of 30.9 µM and an IC50 ([6]; Leishmania donovani, Table 1) of 20.5 µM.
N=C(NO)c1ccc(-c2cnc(-c3ccc(C(=N)NO)cc3)nc2)cc1 [Compound 28, 2,5-Bis-[4′-(N-hydroxyamidino)phenyl]-pyrimidine] gave a melting point of 290 to 292 °C.
In the case of N=C(N)c1ccc(-c2ccc(-c3ccc(C(=N)N)cn3)cn2)cc1 [Compound 94, Phenyl[1,2′]pyridinyl[5′,2″]pyridinyl-4,5″-bis-amidine hydrochloride salt], the Survival ([2]; 5 mg/kg ip, Table 5) is reported as over 60 days, the IC50 ([3]; Plasmodium falciparum, Table 4) is reported as 0.003 µM and the IC50 [4, 12] is reported as 28.3 µM. The IC50 ([6]; Leishmania donovani, Table 4) was 6.82 µM.
Work on CC(C)N=C(N)Nc1ccc(-c2ccc(-c3ccc(NC(N)=NC(C)C)cc3)cc2)cc1 [Compound 51b, 4,4″-Bis(N′-isopropyl)-guanidino-[1,1′;4′,1″]terphenyl] yielded an IC50 [1, 14] of 0.53 µM, an IC50 ([3]; Table 1, k/K = thousand) of 0.014 µM and an IC50 ([4]; read-out: CT IC50, Table 1, L-6 cells) of 21.9 µM. The IC50 ([6]; Table 1) was 7.2 µM.
For N=C(N)c1ccc(-c2ccc(-c3ccc(C(=N)N)cn3)cc2)cc1 [Compound 83, Phenyl[1,1′]phenyl[4′,2″]pyridinyl-4,5″-bis-amidine hydrochloride salt], the IC50 [4, 12] was 26.7 µM and the IC50 ([6]; Leishmania donovani, Table 4) was 1.37 µM.
N=C(N)c1ccc(-c2cnc(-c3ccc(C(=N)N)cc3)cn2)cc1 [Compound 75, 2,5-Bis-(4′-amidinophenyl)-pyrazine hydrochloride salt] gave an IC50 ([1]; Trypanosoma brucei, RHODESIENSE, read-out: T. b. IC50) of 0.018 µM, an IC50 [4, 12] of 42.5 µM and an IC50 ([6]; Leishmania donovani) of 0.562 µM.
In the case of N=C(N)c1ccc(-c2cnc(-c3ccc(C(=N)N)nc3)nc2)cn1 [Compound 77, 2,5-Bis-(2′-amidinopyridin-5′-yl)-pyrimidine hydrochloride salt], the IC50 ([6]; Leishmania donovani, Table 4) is reported as 1.83 µM.
Compound N=C(N)c1ccc(-c2ccc(-c3ccc(C(=N)N)cn3)cc2)nc1 [Compound 31, 1,4-Bis-(5′-amidinopyridin-2′-yl)-phenylene] has an IC50 [1, 14] of 0.047 µM, an IC50 ([3]; Table 1, k/K = thousand) of 0.01 µM and an IC50 ([6]; Table 1) of over 100 µM.
N=C(N)c1ccc(-c2ccc(-c3cnc(C(=N)N)nc3)cn2)cc1 [Compound 100, Phenyl[1,2′]pyridinyl[5′,5″]pyrimidinyl-4,2″-bis-amidine hydrochloride salt] showed an IC50 ([6]; Leishmania donovani, Table 4) of 2.64 µM.
Work on CC(=O)O.N=C(N)c1ccc(-c2ccc(-c3ccc(C(=N)N)o3)cc2)o1 yielded a melting point of 228 to 230 °C.
In the case of N=C(N)c1ccc(-c2ccc(-c3cnc(C(=N)N)nc3)cc2)cc1 [Compound 86, Phenyl[1,1′]phenyl[4′,5″]pyrimidinyl-4,2″-bis-amidine hydrochloride salt], the IC50 ([6]; Leishmania donovani, Table 4) is reported as 0.19 µM.
In the case of Cl.N=C(N)c1ccc(-c2ccc(-c3ccc(C(=N)N)cc3)c(F)c2)cc1 [Compound 23a, 2′-Fluoro-[1,1′;4′,1″]terphenyl-4,4″-bis-amidine hydrochloride salt], the IC50 [1, 7] is reported as 0.002 µM, the IC50 [3, 10] is reported as 0.001 µM and the IC50 [4, 11] is reported as 6.4 µM. For the same compound, the ΔTm ([5]; Table 1) was 15.1 °C and the IC50 ([6]; Leishmania donovani, Table 1) was 0.34 µM.
